The values below come from PubChem BioAssay AID330 (DTP/NCI, 2004).

This test has as its system P388 leukemia ip, CD2F1 mice, survival T/C. Kind of test: NCI In Vivo Anticancer Drug Screen. Data for tumor model P388 Leukemia (intraperitoneal) in CD2F1 (CDF1) mice. The conditions noted are these: endpoint: median survival time, higher = longer survival. The procedure, abridged:
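Mice carrying the transplanted tumor received test compound or vehicle. Survival was recorded in each group, and the value is the treated-group measurement divided by that of the vehicle-treated control group.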

Setting [1] is: dose: 25.0 mg/kg/injection, schedule: Q04DX003 (ip), vehicle: saline.
[2] abbreviates: dose: 50.0 mg/kg/injection, schedule: Q04DX003 (ip), vehicle: saline.
[3] abbreviates: dose: 100.0 mg/kg/injection, schedule: Q04DX003 (ip), vehicle: saline.
[4] abbreviates: dose: 100.0 mg/kg/injection, schedule: Q01DX001 (ip), vehicle: saline with Tween-80.
[5] abbreviates: dose: 200.0 mg/kg/injection, schedule: Q01DX001 (ip), vehicle: saline with Tween-80.
[6] abbreviates: dose: 25.0 mg/kg/injection, schedule: Q01DX009 (ip), vehicle: saline.
The mark [7] stands for this setting: dose: 50.0 mg/kg/injection, schedule: Q01DX009 (ip), vehicle: saline.
Where [8] appears, read: dose: 50.0 mg/kg/injection, schedule: Q01DX005 (ip), vehicle: saline with Tween-80.
Where [9] appears, read: dose: 100.0 mg/kg/injection, schedule: Q01DX005 (ip), vehicle: saline with Tween-80.
Setting [10] is: dose: 50.0 mg/kg/injection, schedule: Q01DX009 (ip), vehicle: Klucel (hydroxypropylcellulose) (HPC).
[11] abbreviates: dose: 60.0 mg/kg/injection, schedule: Q01DX005 (ip), vehicle: saline with Tween-80.
[12] abbreviates: dose: 120.0 mg/kg/injection, schedule: Q01DX005 (ip), vehicle: saline with Tween-80.
The mark [13] stands for this setting: dose: 240.0 mg/kg/injection, schedule: Q01DX005 (ip), vehicle: saline with Tween-80.

“And” between values parts separate entries of the source, which are not always exact repeats. Equal entries are not always repeated. Toxic doses and inconclusive results are not listed.

Consider `CCN(CC)Cc1c(C)[nH]c2ccc3c(c2c1=O)Oc1ccccc1O3`, for which the T/C is, setting by setting: (dose: 100.0 mg/kg/injection, schedule: Q04DX002 (ip), vehicle: Klucel (hydroxypropylcellulose) (HPC)) 100 % of control; (dose: 200.0 mg/kg/injection, schedule: Q04DX002 (ip), vehicle: Klucel (hydroxypropylcellulose) (HPC)) 100 % of control; (dose: 400.0 mg/kg/injection, schedule: Q04DX002 (ip), vehicle: Klucel (hydroxypropylcellulose) (HPC)) 100 % of control.

With `C1CC2OC2CC1C1CO1` (stereo unspecified), the T/C runs as follows: (dose: 100.0 mg/kg/injection, schedule: Q01DX009 (ip), vehicle: saline with Tween-80) 104 % of control; (dose: 100.0 mg/kg/injection, schedule: Q04DX003 (ip), vehicle: saline sonified) 100 % of control; (dose: 200.0 mg/kg/injection, schedule: Q01DX009 (ip), vehicle: saline with Tween-80) 104 % of control; (dose: 200.0 mg/kg/injection, schedule: Q04DX003 (ip), vehicle: saline sonified) 100 % of control; (dose: 400.0 mg/kg/injection, schedule: Q04DX003 (ip), vehicle: saline sonified) 109 % of control.

In the case of `CC(=O)OC1CC2CCCCC2[N+](C)(C)C1` (stereo unspecified), the T/C is, setting by setting: under setting [1], 106 % of control; under setting [2], 103 % of control; under setting [3], 104 % of control.

Regarding `CCCCOP(O)(=S)OCCCC.[Ho]`, the T/C (dose: 66.0 mg/kg/injection, schedule: Q01DX001 (ip), vehicle: saline with Tween-80) is 100 % of control; the T/C under setting [4] was 98 % of control; the T/C (dose: 150.0 mg/kg/injection, schedule: Q01DX001 (ip), vehicle: saline with Tween-80) is 98 % of control; the T/C under setting [5] is 90 % of control; the T/C (dose: 400.0 mg/kg/injection, schedule: Q01DX001 (ip), vehicle: saline with Tween-80) was 90 % of control.

On to `CC(=O)CC(C)=NCCN=C(C)CC(C)=O.C[CH2][Sn][CH2]C`, for which the T/C reads like this: (dose: 12.5 mg/kg/injection, schedule: Q04DX003 (ip), vehicle: saline) 106 % of control; under setting [1], 105 % of control; under setting [2], 120 % of control; under setting [3], 150 % of control.

On to `C(Oc1nc(OCC2CO2)nc(OCC2CO2)n1)C1CO1` (stereo unspecified), for which the T/C was 108 % of control (dose: 12.5 mg/kg/injection, schedule: Q01DX009 (ip), vehicle: saline); 105 % of control under setting [6]; 101 % of control and 108 % of control under setting [7].

For `CC(=O)Nc1cc2cc(NS(=O)(=O)c3ccc(Cl)c(Cl)c3)ccc2oc1=O`, the T/C was 89 % of control (dose: 50.0 mg/kg/injection, schedule: Q01DX005 (ip), vehicle: Klucel (hydroxypropylcellulose) (HPC)); 93 % of control (dose: 100.0 mg/kg/injection, schedule: Q01DX005 (ip), vehicle: Klucel (hydroxypropylcellulose) (HPC)); 95 % of control (dose: 200.0 mg/kg/injection, schedule: Q01DX005 (ip), vehicle: Klucel (hydroxypropylcellulose) (HPC)).

Consider `COC(=O)Nc1ccc(C2OCCN2C(=O)Nc2ccc(Cl)cc2)cc1` (stereo unspecified), for which the T/C is 87 % of control under setting [8] and 88 % of control under setting [9].

With `COc1cccc(OC)c1SSCCN`, the T/C by setting is: (dose: 100.0 mg/kg/injection, schedule: Q04DX002 (ip), vehicle: suspension in saline) 107 % of control; (dose: 200.0 mg/kg/injection, schedule: Q04DX002 (ip), vehicle: suspension in saline) 111 % of control.

For the molecule `Nc1nc(N)c(Cl)c(Nc2cccc(Cl)c2)n1`, the T/C (dose: 6.25 mg/kg/injection, schedule: Q01DX001 (ip), vehicle: saline with Tween-80) was 94 % of control.

In the case of `CC12CCC(c3sc(N)c(C#N)c31)C2(C)C` (stereo unspecified), the T/C (dose: 12.5 mg/kg/injection, schedule: Q01DX009 (ip), vehicle: Klucel (hydroxypropylcellulose) (HPC)) is 114 % of control; the T/C (dose: 25.0 mg/kg/injection, schedule: Q01DX009 (ip), vehicle: Klucel (hydroxypropylcellulose) (HPC)) was 104 % of control; the T/C under setting [10] is 104 % of control.

Take `CC1(c2cc(Cl)c(Cl)cc2Cl)NC(=O)NC1=O` (stereo unspecified): the T/C is 103 % of control under setting [4] and 112 % of control under setting [5].

As to `Clc1ccc(OCSCOc2ccc(Cl)cc2Cl)c(Cl)c1`, the T/C is 106 % of control under setting [10]; 99 % of control (dose: 100.0 mg/kg/injection, schedule: Q01DX009 (ip), vehicle: Klucel (hydroxypropylcellulose) (HPC)); 101 % of control (dose: 200.0 mg/kg/injection, schedule: Q01DX009 (ip), vehicle: Klucel (hydroxypropylcellulose) (HPC)).

With `Nc1ccccc1SC1CCCCC1O` (stereo unspecified), the T/C is 101 % of control under setting [6]; 97 % of control under setting [7]; 97 % of control (dose: 100.0 mg/kg/injection, schedule: Q01DX009 (ip), vehicle: saline); 102 % of control (dose: 200.0 mg/kg/injection, schedule: Q01DX009 (ip), vehicle: saline).

Regarding `Cc1cc(OCCCC[N+](C)(C)Cc2ccc(Br)o2)c(C(C)C)cc1Cl`, the T/C runs as follows: (dose: 1.56 mg/kg/injection, schedule: Q01DX009 (ip), vehicle: saline) 91 % of control; (dose: 3.13 mg/kg/injection, schedule: Q01DX009 (ip), vehicle: saline) 100 % of control; (dose: 6.25 mg/kg/injection, schedule: Q01DX009 (ip), vehicle: saline) 103 % of control and 105 % of control.

In the case of `CC(CN(C)C)OC(=O)c1ccc(Cl)cc1Cl` (stereo unspecified), the T/C was 100 % of control (dose: 50.0 mg/kg/injection, schedule: Q01DX005 (ip), vehicle: saline); 98 % of control (dose: 100.0 mg/kg/injection, schedule: Q01DX005 (ip), vehicle: saline); 100 % of control (dose: 200.0 mg/kg/injection, schedule: Q01DX005 (ip), vehicle: saline).

For `CCC(=O)Nc1ccc(C(=O)C(C)Br)cc1` (stereo unspecified), the T/C runs as follows: (dose: 6.25 mg/kg/injection, schedule: Q01DX009 (ip), vehicle: saline with Tween-80) 108 % of control; (dose: 12.5 mg/kg/injection, schedule: Q01DX009 (ip), vehicle: saline with Tween-80) 115 % of control; (dose: 25.0 mg/kg/injection, schedule: Q01DX009 (ip), vehicle: saline with Tween-80) 117 % of control.

For `O=C1c2cc([N+](=O)[O-])cc3cc([N+](=O)[O-])cc(c23)C(=O)N1CCNCCN1C(=O)c2cc([N+](=O)[O-])cc3cc([N+](=O)[O-])cc(c23)C1=O`, the T/C was 100 % of control and 123 % of control under setting [8]; 107 % of control under setting [9]; 105 % of control and 88 % of control (dose: 200.0 mg/kg/injection, schedule: Q01DX005 (ip), vehicle: saline with Tween-80).

With `c1ccc2c(c1)CCc1cc(CN3CCOCC3)ccc1N2`, the T/C was 111 % of control (dose: 60.0 mg/kg/injection, schedule: Q01DX005 (ip), vehicle: Klucel (hydroxypropylcellulose) (HPC)); 108 % of control (dose: 120.0 mg/kg/injection, schedule: Q01DX005 (ip), vehicle: Klucel (hydroxypropylcellulose) (HPC)); 105 % of control (dose: 240.0 mg/kg/injection, schedule: Q01DX005 (ip), vehicle: Klucel (hydroxypropylcellulose) (HPC)).

As to `CN(C)C1CS(=O)(=O)OC2=C1CCSc1ccccc12` (stereo unspecified), the T/C is, setting by setting: under setting [11], 102 % of control; under setting [12], 99 % of control; under setting [13], 100 % of control.

Turning to `O=C(Nc1ccc(F)cc1)N1CCOCC1`, the T/C by setting is: under setting [11], 98 % of control; under setting [12], 93 % of control; under setting [13], 93 % of control.

For the molecule `CSc1ccc(C(C)=O)cc1`, the T/C reads like this: (dose: 50.0 mg/kg/injection, schedule: Q01DX009 (ip), vehicle: saline + alcohol) 100 % of control; (dose: 100.0 mg/kg/injection, schedule: Q01DX009 (ip), vehicle: saline + alcohol) 102 % of control; (dose: 200.0 mg/kg/injection, schedule: Q01DX009 (ip), vehicle: saline + alcohol) 100 % of control; (dose: 400.0 mg/kg/injection, schedule: Q01DX009 (ip), vehicle: saline + alcohol) 104 % of control.

For `C=C(C)[C@H]1C[C@]2(C)[C@@H](C)CC(=O)C[C@H]2[C@@H](OC(=O)/C(C)=C\C)[C@@H]1OC(=O)/C(C)=C/C`, the T/C is 100 % of control (dose: 130.0 mg/kg/injection, schedule: Q01DX001 (ip), vehicle: Klucel (hydroxypropylcellulose) (HPC)); 99 % of control (dose: 260.0 mg/kg/injection, schedule: Q01DX001 (ip), vehicle: Klucel (hydroxypropylcellulose) (HPC)); 100 % of control (dose: 520.0 mg/kg/injection, schedule: Q01DX001 (ip), vehicle: Klucel (hydroxypropylcellulose) (HPC)).
